Converted amounts (≈) assume the structure as drawn.

These results are taken from US10227362B2 (priority 2015, dated 2019).

Holding throughout (type): cell-based
Assay [1] deals with Mycobacterium bovis BCG strain TMC1019 (ATCC35737). The assay is described as follows: microbe, parasite or virus in culture. As to conditions: Mycobacterium tuberculosis variant bovis BCG, 24 h, read-out: M. bovis ATCC35737 (ug/mL).
Assay [2] relates to Mycobacterium tuberculosis H37Rv strain. The assay is described as follows: In vitro MIC against M. tuberculosis H37Rv strain (MABA, Alamar Blue). On the procedure: Part I: The in vitro efficacy of anti-Mycobacterium tuberculosis compounds was tested using H37Rv strain.
On the day of the test, the compound was dissolved in pure DMSO (Sigma 276855-2L) to a concentration of 10 mg/mL which was used as the mother liquor of the compound. 30 μL of DMSO was added to wells of column 2 to 11 s of the v-bottom 96-well plates (Axygen-wipp02280). 30 μL of the mother liquor of the compound was added to the well of column 2, after mixing, 30 μL was taken from the well of column 2 and added to the well of column 3, and then pipetted and mixed. The operation was taken to column 10. Column 11 was free of medicine and contained only 30 μL of DMSO. This was the “motherplate” of the compound. From column 2 to 11, the corresponding concentration of the compound was 5, 2.5, 1.25, 0.625, 0.3125, 0.156, 0.078, 0.039, 0.02, 0 mg/mL. […] A flat bottom 96-well plate (Greiner 655090) was used as a “daughterplate”. 98 μL of 7H9 (Sigma M0178) medium was added to the wells of all daughterplates. 2 μL of compound was extracted from the motherboard and added to the corresponding daughter plate. Line A and H, column 1 and 12 of the daughterplate contained only 7H9 medium.
The H37Rv strain in the glycerol cryovial was inoculated into 7H9 medium containing 0.05% Tween 80 and cultured for 4 weeks at 37° C. in a shaker with 200 rpm. The bacterial liquid was washed twice with 7H9 medium containing 0.05% Tween 80 and resuspended in the same medium. The absorbance of the bacteria liquid was adjusted to OD550=0.4-0.5 using the same medium. The bacteria liquid was sub-packed in microcentrifuge tubes and stored at −80° C. Storage time was no more than 1 month. On the day of the test, the packaged bacteria liquid would be […]. The bacteria liquid was diluted 20 times and then diluted 50 times with 7H9 medium, and a total of 1000 times dilution. The bacteria liquid would be used to inoculate on the daughterplate. 100 μL of bacterial liquid was inoculated in each well of the daughterboard, 100 μL 7H9 medium was added to column 12 and without bacteria liquid.
The test daughterplate was placed in an incubator at 37° C. and the humidity was maintained at >80%. A week later, 12.5 μL of 7H9 medium containing 20% Tween 80 and 20 μL of Alamar Blue (Invitrogen DAL1100) were added to the well of a column 1 containing bacteria and the well of a column 12 without bacteria every day, and then continue to incubate for 24 hours and observed. When the added Alamar Blue was reduced to pink in 24 hours by the bacteria liquid in the well of column 1, the 7H9 medium containing 20% Tween 80 and Alamar Blue were added to all wells on the test plate and the fluorescence values were measured after incubation for 24 hours at 37° C.
In general terms: Resazurin is reduced to fluorescent resorufin, in cell work by metabolically active cells.

For another assay, the system named is Vero Cell. The experiment in a line: Vero cell cytotoxicity. As to conditions: Chlorocebus sabaeus, Vero cells.

As a reminder, the IC50 is the concentration at which inhibition is half-maximal. A high value points to lower potency. As for `C[C@]1(CN2Cc3nc(-c4cccc(F)c4)sc3C2)Cn2cc([N+](=O)[O-])nc2O1` [Compound 70, (S)-2-((2-(3-Fluorophenyl)-4H-pyrrolo[3,4-d]thiazol-5(6H)-yl)methyl)-2-methyl-6-nitro-2,3-dihydroimidazo[2,1-b]oxazole], the MIC in assay [1] and in assay [2] was below 1 µg/mL in each case. The same compound gave an IC50 in the assay on Vero Cell above 32 µg/mL. Take `C[C@]1(CN2Cc3nc(-c4ccc(OC(F)(F)F)cc4)sc3C2)Cn2cc([N+](=O)[O-])nc2O1` [Compound 73, (S)-2-Methyl-6-nitro-2-((2-(4-(trifluoromethoxy)phenyl)-4H-pyrrolo[3,4-d]thiazol-5(6H)-yl)methyl)-2,3-dihydroimidazo[2,1-b]oxazole]: in assay [1], the MIC lay within 1 to 32 µg/mL (≈ 2.14 to 68.5 µM).

For the compound `C[C@]1(CN2Cc3nc(-c4ccc(F)cc4F)sc3C2)Cn2cc([N+](=O)[O-])nc2O1` [Compound 78, (S)-2-((2-(2,4-Difluorophenyl)-4H-pyrrolo[3,4-d]thiazol-5(6H)-yl)methyl)-2-methyl-6-nitro-2,3-dihydroimidazo[2,1-b]oxazole], the MIC in assay [1] and in assay [2] was below 1 µg/mL in each case. The compound further registered an IC50 in the assay on Vero Cell above 32 µg/mL. `C[C@]1(CN2CCc3nc(-c4ccc(F)c(Cl)c4)ccc3C2)Cn2cc([N+](=O)[O-])nc2O1` [Compound 18, (S)-2-((2-(3-Chloro-4-fluorophenyl)-7,8-dihydro-1,6-naphthyridin-6(5H)-yl)methyl)-2-methyl-6-nitro-2,3-dihydroimidazo[2,1-b]oxazole]: in assay [1], the MIC is below 1 µg/mL. Same read-out and setting: in the case of `C[C@]1(CN2CCc3nc(C4CCCCC4)ccc3C2)Cn2cc([N+](=O)[O-])nc2O1` [Compound 59, (S)-2-((2-Cyclohexyl-7,8-dihydro-1,6-naphthyridin-6(5H)-yl)methyl)-2-methyl-6-nitro-2,3-dihydroimidazo[2,1-b]oxazole] it was below 1 µg/mL; in that of `C[C@]1(CN2CCc3nc(-c4cc(F)cc(F)c4)ncc3C2)Cn2cc([N+](=O)[O-])nc2O1` [Compound 48, (S)-2-((2-(3,5-Difluorophenyl)-7,8-dihydropyrido[4,3-d]pyrimidin-6(5H)-yl)methyl)-2-methyl-6-nitro-2,3-dihydroimidazo[2,1-b]oxazole], below 1 µg/mL; in that of `C[C@]1(CN2CCc3oc(-c4ccc(F)cc4)cc3C2)Cn2cc([N+](=O)[O-])nc2O1` [Compound 64, (S)-2-(4-Fluorophenyl)-5-((2-methyl-6-nitro-2,3-dihydroimidazo[2,1-b]oxazol-2-yl)methyl)-4,5,6,7-tetrahydrofuro[3,2-c]pyridine], below 1 µg/mL. In the case of `C[C@]1(CN2Cc3nc(-c4ccc(F)c(F)c4)oc3C2)Cn2cc([N+](=O)[O-])nc2O1` [Compound 90, (S)-2-(3,4-Difluorophenyl)-5-((2-methyl-6-nitro-2,3-dihydroimidazo[2,1-b]oxazol-2-yl)methyl)-5,6-dihydro-4H-pyrrolo[3,4-d]oxazole], in assay [1], the MIC was below 1 µg/mL.

Turning to `C[C@]1(CN2CCc3nc(C4CC4)ccc3C2)Cn2cc([N+](=O)[O-])nc2O1` [Compound 26, (S)-2-((2-Cyclopropyl-7,8-dihydro-1,6-naphthyridin-6(5H)-yl)methyl)-2-methyl-6-nitro-2,3-dihydroimidazo[2,1-b]oxazole], the MIC in assay [1] was below 1 µg/mL. On the same count and under the same terms, in the case of `C[C@]1(CN2Cc3nc(-c4cc(F)c(F)cc4F)sc3C2)Cn2cc([N+](=O)[O-])nc2O1` [Compound 83, (S)-2-Methyl-6-nitro-2-((2-(2,4,5-trifluorophenyl)-4H-pyrrolo[3,4-d]thiazol-5(6H)-yl)methyl)-2,3-dihydroimidazo[2,1-b]oxazole] it was below 1 µg/mL; in that of `C[C@]1(CN2CCc3nc(-c4ccc(Cl)cc4F)ccc3C2)Cn2cc([N+](=O)[O-])nc2O1` [Compound 23, (S)-2-((2-(4-Chloro-2-fluorophenyl)-7,8-dihydro-1,6-naphthyridin-6(5H)-yl)methyl)-2-methyl-6-nitro-2,3-dihydroimidazo[2,1-b]oxazole], below 1 µg/mL.

Consider `C[C@]1(Cn2cc3nc(-c4ccc(F)cc4)sc3c2)Cn2cc([N+](=O)[O-])nc2O1` [Compound 75, (S)-2-((2-(4-Fluorophenyl)-5H-pyrrolo[3,4-d]thiazol-5-yl)methyl)-2-methyl-6-nitro-2,3-dihydroimidazo[2,1-b]oxazole], for which the MIC in assay [1] fell in the range of 1 to 32 µg/mL (≈ 2.5 to 80.1 µM). In the case of `C[C@]1(CN2CCc3nc(-c4cc(F)cc(Cl)c4)ccc3C2)Cn2cc([N+](=O)[O-])nc2O1` [Compound 21, (S)-2-((2-(3-Chloro-5-fluorophenyl)-7,8-dihydro-1,6-naphthyridin-6(5H)-yl)methyl)-2-methyl-6-nitro-2,3-dihydroimidazo[2,1-b]oxazole], in assay [1], the MIC was below 1 µg/mL. Same read-out and setting: in the case of `C[C@]1(CN2Cc3nc(-c4cc(F)c(F)cc4F)oc3C2)Cn2cc([N+](=O)[O-])nc2O1` [Compound 94, (S)-5-((2-Methyl-6-nitro-2,3-dihydroimidazo[2,1-b]oxazol-2-yl)methyl)-2-(2,4,5-trifluorophenyl)-5,6-dihydro-4H-pyrrolo[3,4-d]oxazole] it was below 1 µg/mL; in that of `C[C@]1(CN2CCc3nc(Nc4ccc(F)cc4)ccc3C2)Cn2cc([N+](=O)[O-])nc2O1` [Compound 33, (S)—N-(4-Fluorophenyl)-6-((2-methyl-6-nitro-2,3-dihydroimidazo[2,1-b]oxazol-2-yl)methyl)-5,6,7,8-tetrahydro-1,6-naphthyridin-2-amine], below 1 µg/mL; in that of `C[C@]1(CN2CCc3nc(-c4ccc(OC(F)(F)F)c(F)c4)ccc3C2)Cn2cc([N+](=O)[O-])nc2O1` [Compound 11, (S)-2-((2-(3-Fluoro-4-(trifluoromethoxy)phenyl)-7,8-dihydro-1,6-naphthyridin-6(5H)-yl)methyl)-2-methyl-6-nitro-2,3-dihydroimidazo[2,1-b]oxazole], 1 to 32 µg/mL (≈ 2.03 to 64.9 µM). Still for that read-out and setting: in the case of `C[C@]1(CN2CCc3nc(N4CCCCC4)ccc3C2)Cn2cc([N+](=O)[O-])nc2O1` [Compound 28, (S)-2-Methyl-6-nitro-2-((2-(piperidin-1-yl)-7,8-dihydro-1,6-naphthyridin-6(5H)-yl)methyl)-2,3-dihydroimidazo[2,1-b]oxazole] it was below 1 µg/mL. Same read-out and setting: in the case of `C[C@]1(CN2CCc3nc(-c4cccc(Cl)c4F)ccc3C2)Cn2cc([N+](=O)[O-])nc2O1` [Compound 19, (S)-2-((2-(3-Chloro-2-fluorophenyl)-7,8-dihydro-1,6-naphthyridin-6(5H)-yl)methyl)-2-methyl-6-nitro-2,3-dihydroimidazo[2,1-b]oxazole] it was below 1 µg/mL.

With `C[C@]1(CN2CCc3nc(-c4cc(Cl)ccc4F)ccc3C2)Cn2cc([N+](=O)[O-])nc2O1` [Compound 15, (S)-2-((2-(5-Chloro-2-fluorophenyl)-7,8-dihydro-1,6-naphthyridin-6(5H)-yl)methyl)-2-methyl-6-nitro-2,3-dihydroimidazo[2,1-b]oxazole], the MIC in assay [1] is below 1 µg/mL. Still for that read-out and setting: with `C[C@]1(CN2CCc3nc(-c4cccc(F)c4F)ccc3C2)Cn2cc([N+](=O)[O-])nc2O1` [Compound 16, (S)-2-((2-(2,3-Difluorophenyl)-7,8-dihydro-1,6-naphthyridin-6(5H)-yl)methyl)-2-methyl-6-nitro-2,3-dihydroimidazo[2,1-b]oxazole] the figure was below 1 µg/mL.

Regarding `C[C@]1(CN2CCc3nc(-c4ccsc4Cl)ccc3C2)Cn2cc([N+](=O)[O-])nc2O1` [Compound 53, (S)-2-((2-(2-Chlorothiophen-3-yl)-7,8-dihydro-1,6-naphthyridin-6(5H)-yl)methyl)-2-methyl-6-nitro-2,3-dihydroimidazo[2,1-b]oxazole], the MIC in assay [1] is below 1 µg/mL. `C[C@]1(CN2CCc3nc(-c4cc(F)ccc4Cl)ccc3C2)Cn2cc([N+](=O)[O-])nc2O1` [Compound 22, (S)-2-((2-(2-Chloro-5-fluorophenyl)-7,8-dihydro-1,6-naphthyridin-6(5H)-yl)methyl)-2-methyl-6-nitro-2,3-dihydroimidazo[2,1-b]oxazole]: in assay [1], the MIC was below 1 µg/mL. The same measure, in the same setting: with `C[C@]1(CN2CCc3nc(-c4cc(F)ccc4F)ccc3C2)Cn2cc([N+](=O)[O-])nc2O1` [Compound 17, (S)-2-((2-(2,5-Difluorophenyl)-7,8-dihydro-1,6-naphthyridin-6(5H)-yl)methyl)-2-methyl-6-nitro-2,3-dihydroimidazo[2,1-b]oxazole] the figure was below 1 µg/mL.
